Assay results taken from patent US20200377459A1, “CHARGED ION CHANNEL BLOCKERS AND METHODS FOR USE” (President and Fellows of Harvard College, priority 2015, published 2020).

What was measured:
[1] = system: thermal nociceptive threshold; assay: Thermal nociceptive threshold after acute intraplantar injection in naive animals; format: in vivo, rats; details: naïve animals
[2] = system: CFA-induced thermal hyperalgesia; assay: CFA-induced thermal hyperalgesia (Hargreaves radiant heat, hind paw); format: in vivo; details: mice, intraplantar co-injection with CFA, 1%
Method: FIGS. 2A-2D show reversal of CFA-induced thermal hyperalgesia by charged sodium channel blockers. FIGS. 2A and 2C show time course (0, 1, 6, and 24 hours) of changes in thermal nociceptive sensitivity measured as response latency (seconds) to a constant radiant heat source applied to the plantar surface of hind paw in mice co-treated with 20 μL (injected in the left hindpaw) of CFA (50% emulsion) and saline, and when the CFA was co-applied with QX-314 (1%, hollow square), N-ethyl etidocaine (Compound 21, 1%; dark square), or ACS8180-3B (Compound 3, 1%; solid triangle). FIGS. 2B and 2D show the nociceptive heat pain response time before CFA treatment and after treatment with the different compounds 1 hour post CFA injection. The data are means±SEM of 8-16 mice per group. The statistical comparison with pre-CFA (*) and with CFA+Vehicle (+) is indicated by +P<0.05; ++P<0.01 and +++,*** P<0.001. All procedures were approved by the Institutional Animal Care and Use Committees. Mice and rats were housed in standard environmental conditions (12-h light/dark cycle; 23° C.; food and water ad libitum) at facilities accredited by the Association for Assessment and Accreditation of Laboratory Animal Care. 8-week old male BALB/c (stock number: 001026) and C57BL/6J (stock number 000664) mice were purchased from Jackson Laboratory and respectively used in allergic airway inflammation (FIG. 5) and pain hypersensitivity model (FIGS. 2A-2D). 6-week old male Sprague-Dawley (stock number: 400) rats, 150±25 grams, were purchased from Charles River laboratory and used to assess pain hypersensitivity (FIG. 3). The compounds were injected in the plantar surface of each animal's right hind paw in 10 μl (mice) or 50 μl (rats) volume of 1:1 emulsion of Complete Freund's Adjuvant (CFA). […] On the 4th day, their thermal nociceptive threshold was evaluated. […] Impact of treatment was analyzed 1 h prior and 1, 3, 6 and 24 h post-treatment. […] With each reading the apparatus was set with a cut-off time of 32 s.

human Nav1.7 channels = target: T1, human Nav1.7 channels (Homo sapiens, UniProt Q15858); assay: Whole-cell patch clamp, use-dependent block of sodium current, drug applied intracellularly or externally; format: cell-based; details: for effect on sodium current when applied externally versus inside the cell: same protocol, applied outside the cell
T1 construct: expressed in transfected cells
T1 sequence (Q15858 whole entry): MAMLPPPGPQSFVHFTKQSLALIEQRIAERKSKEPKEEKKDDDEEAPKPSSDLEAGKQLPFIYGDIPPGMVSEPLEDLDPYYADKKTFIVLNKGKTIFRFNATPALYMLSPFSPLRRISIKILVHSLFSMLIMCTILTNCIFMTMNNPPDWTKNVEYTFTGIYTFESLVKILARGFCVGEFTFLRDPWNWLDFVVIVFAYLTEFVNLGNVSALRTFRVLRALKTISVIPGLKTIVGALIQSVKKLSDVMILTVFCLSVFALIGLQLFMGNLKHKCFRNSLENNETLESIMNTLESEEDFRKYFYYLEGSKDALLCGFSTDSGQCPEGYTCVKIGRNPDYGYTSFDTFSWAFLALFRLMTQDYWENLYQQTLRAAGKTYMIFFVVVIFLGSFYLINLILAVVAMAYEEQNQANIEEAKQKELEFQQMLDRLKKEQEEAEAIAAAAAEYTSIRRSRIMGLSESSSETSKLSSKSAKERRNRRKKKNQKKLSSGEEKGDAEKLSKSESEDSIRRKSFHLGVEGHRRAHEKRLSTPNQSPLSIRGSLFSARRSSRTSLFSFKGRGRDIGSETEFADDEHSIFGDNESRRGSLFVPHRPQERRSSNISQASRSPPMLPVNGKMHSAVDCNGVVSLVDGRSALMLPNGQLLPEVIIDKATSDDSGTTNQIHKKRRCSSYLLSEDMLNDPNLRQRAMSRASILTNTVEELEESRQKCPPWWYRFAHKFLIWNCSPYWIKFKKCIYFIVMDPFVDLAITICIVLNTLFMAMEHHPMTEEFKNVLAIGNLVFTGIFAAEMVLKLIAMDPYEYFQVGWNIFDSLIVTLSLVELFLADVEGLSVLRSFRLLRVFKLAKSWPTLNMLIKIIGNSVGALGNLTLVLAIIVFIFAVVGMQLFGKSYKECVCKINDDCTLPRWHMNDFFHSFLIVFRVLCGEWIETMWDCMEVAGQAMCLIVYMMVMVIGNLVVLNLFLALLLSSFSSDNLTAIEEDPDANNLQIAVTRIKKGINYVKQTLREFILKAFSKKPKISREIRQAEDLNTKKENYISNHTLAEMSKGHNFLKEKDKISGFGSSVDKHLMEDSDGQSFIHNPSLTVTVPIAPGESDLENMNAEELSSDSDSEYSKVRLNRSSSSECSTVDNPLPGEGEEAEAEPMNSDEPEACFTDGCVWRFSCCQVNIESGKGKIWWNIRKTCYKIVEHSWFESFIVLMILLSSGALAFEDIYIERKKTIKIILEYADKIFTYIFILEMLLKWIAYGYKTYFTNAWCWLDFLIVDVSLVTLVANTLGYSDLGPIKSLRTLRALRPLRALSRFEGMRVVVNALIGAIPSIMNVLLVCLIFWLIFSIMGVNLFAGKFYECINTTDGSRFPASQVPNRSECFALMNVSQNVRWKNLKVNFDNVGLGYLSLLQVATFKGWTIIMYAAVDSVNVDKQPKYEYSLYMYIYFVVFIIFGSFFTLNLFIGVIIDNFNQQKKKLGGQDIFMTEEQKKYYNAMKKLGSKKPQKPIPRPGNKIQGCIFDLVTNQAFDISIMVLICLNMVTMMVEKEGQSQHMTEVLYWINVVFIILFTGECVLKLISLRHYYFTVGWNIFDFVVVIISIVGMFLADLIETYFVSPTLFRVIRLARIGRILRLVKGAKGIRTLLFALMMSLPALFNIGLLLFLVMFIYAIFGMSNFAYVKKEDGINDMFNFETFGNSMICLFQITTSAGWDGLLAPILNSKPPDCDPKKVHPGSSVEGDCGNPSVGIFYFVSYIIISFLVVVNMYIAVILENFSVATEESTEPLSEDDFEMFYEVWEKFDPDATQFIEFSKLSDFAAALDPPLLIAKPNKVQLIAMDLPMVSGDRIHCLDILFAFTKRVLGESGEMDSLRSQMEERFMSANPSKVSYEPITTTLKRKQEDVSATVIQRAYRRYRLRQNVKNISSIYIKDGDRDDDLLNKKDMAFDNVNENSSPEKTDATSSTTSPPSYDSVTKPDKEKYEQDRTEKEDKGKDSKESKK
Method: Whole-cell recordings were made of currents carried by voltage-activated channels in HEK293 cells stably expressing human Nav1.7 channels. Recordings were made using patch pipettes with resistances of 2-3.5 MQ when filled with internal solution, consisting of 61 mM CsF, 61 mM CsCl, 9 mM NaCl, 1.8 mM MgCl2, 9 mM EGTA, 14 mM creatine phosphate (tris salt), 4 mM MgATP, and 0.3 mM GTP (tris salt), 9 mM HEPES, pH adjusted to 7.2 with CsOH. The shank of the electrode was wrapped with Parafilm in order to reduce capacitance and allow optimal series resistance compensation without oscillation. Seals were obtained and the whole-cell configuration established with cells in Tyrode's solution (155 mM NaCl, 3.5 mM KCl, 1.5 mM CaCl2), 1 mM MgCl2, 10 mM HEPES, 10 mM glucose, pH adjusted to 7.4 with NaOH) with 10 mM TEACl. To ensure complete dialysis with pipette solution, recordings began after 5 to 10 min after establishment of the whole-cell configuration.
Currents were recorded at room temperature (21-23° C.) with an Axopatch 200 amplifier and filtered at 5 kHz with a low-pass Bessel filter. The amplifier was tuned for partial compensation of series resistance (typically 70-80% of a total series resistance of 4-10 MO). Currents were digitized using a Digidata 1322A data acquisition interface controlled by pClamp9.2 software (Axon Instruments) and analyzed using programs written in Igor Pro 4.0 (Wavemetrics, Lake Oswego, Oreg.). Currents were corrected for linear capacitative and leak currents determined using 5 mV hyperpolarizations delivered from the resting potential (usually −80 or −100 mV) and then appropriately scaled and subtracted.
Sodium currents were evoked by 30-msec depolarizations from −100 mV to −20 mV. To assay use-dependent block, pulses were delivered at series of increasing rates: 0.05 Hz for 1-min, 0.33 Hz for 1-min, 1 Hz for 1-min, 3 Hz for 1-min, 5 Hz for 30 seconds, 10 Hz for 30 seconds, with 1 minute rest between each series of pulses. After the series of pulses to induce use-dependent block, the time course of recovery was followed using pulses delivered at 01. Hz (2-min) and 0.05 Hz (1-min).
To induce use-dependent block, the depolarizations were delivered by series of increasing rates: 0.05 Hz for 1-min, 0.33 Hz for 1-min, 1 Hz for 1-min, 3 Hz for 1-min, 5 Hz for 30 seconds, 10 Hz for 30 seconds, with 1 minute rest between each series of pulses. After the series of pulses to induce use-dependent block, the time course of recovery was followed using pulses delivered at 01. Hz (2-min) and 0.05 Hz (1-min). Peak sodium current was plotted as a function of experimental time (1-min per division on the time axis).

Structure (SMILES)	inhibition at 100 µM (human Nav1.7 channels) [%]	also measured
CCC(C(=O)Nc1c(C)cccc1C)[N+]1(CC)CCCC1 (stereo not shown) [Compound 3, 1-(1-(2,6-dimethylphenylamino)-1-oxobutan-2-yl)-1-ethylpyrrolidinium Chloride]	78	long lasting analgesia in naïve animals [1]: without long lasting analgesia; reversal of CFA-induced thermal hyperalgesia [2]: potent blockade
Cc1cccc(C)c1NC(=O)C1CCC[N+]1(C)C (stereo not shown) [Compound 13, 2-(2,6-dimethylphenylcarbamoyl)-1,1-dimethylpyrrolidinium Chloride]	33	
CCC(C(=O)Nc1c(C)cccc1C)[N+]1(CC)CCCCC1 (stereo not shown) [Compound 6, 1-(1-(2,6-dimethylphenylamino)-1-oxobutan-2-yl)-1-ethylpiperidinium]	83	use dependent accumulation of block (human Nav1.7 channels; 100 micromolar inside cell, stimulation frequencies from 1 to 10 Hz): strong use dependent accumulation of block; effect on sodium current when applied externally versus inside the cell (human Nav1.7 channels): far more effective when applied inside the cell; effect on sodium current when applied externally versus inside the cell (human Nav1.7 channels; listed as compound 6): very little effect
CC[N+](CC)(CC)CCNC(=O)c1c(C)cccc1C [Compound 25]	3	
Cc1cc(F)cc(C)c1NC(=O)C1CCCC[N+]1(C)C (stereo not shown) [Compound 16, 2-(4-fluoro-2,6-dimethylphenylcarbamoyl)-1,1-dimethylpiperidinium Chloride]	70	
CC[N+](CC)(CC)CCC(=O)Nc1c(C)cccc1C [Compound 24, 3-(2,6-dimethylphenylamino)-N,N,N-triethyl-3-oxopropan-1-aminium Chloride]	15	
CC[N+]1(CC)CCCCC1C(=O)Nc1c(C)cccc1C (stereo not shown) [Compound 15, 2-(2,6-dimethylphenylcarbamoyl)-1,1-diethylpiperidinium Chloride]	40	
CC[N+](CC)(CC)CC(=O)Nc1c(C)cc(N)cc1C [Compound 23, 2-(4-amino-2,6-dimethylphenylamino)-N, N, N-triethyl-2-oxoethanaminium Chloride]	56	
Cc1cccc(C)c1NC(=O)C(C)[N+]1(C)CCCCC1 (stereo not shown) [Compound 4, 1-(1-(2,6-dimethylphenylamino)-1-oxopropan-2-yl)-1-methylpiperidinium Chloride]	43	
Cc1cccc(C)c1NC(=O)C(C)(C)[N+]1(C)CCCCC1 [Compound 5, 1-(1-(2,6-dimethylphenylamino)-2-methyl-1-oxopropan-2-yl)-1-methylpiperidinium Chloride]	34	
Cc1cccc(C)c1NC(=O)C(C)[N+]1(C)CCCC1 (stereo not shown) [Compound 1, 1-(1-(2,6-dimethylphenylamino)-1-oxopropan-2-yl)-1-methylpyrrolidinium Chloride]	40	
CC[N+]1(CC)CCCC1C(=O)Nc1c(C)cccc1C (stereo not shown) [Compound 14, 2-(2,6-dimethylphenylcarbamoyl)-1,1-diethylpyrrolidinium Chloride]	62	
Cc1cccc(C)c1NC(=O)C(C)(C)[N+]1(C)CCCC1 [Compound 2, 1-(1-(2,6-dimethylphenylamino)-2-methyl-1-oxopropan-2-yl)-1-methylpyrrolidinium Chloride]	42	
CC[N+](CC)(CC)CC(=O)Nc1ccc(N)cc1 [Compound 22, 2-(4-aminophenylamino)-N,N,N-triethyl-2-oxoethanaminium]	0	
